Data: EP0774460A1, “BENZOIC ACID COMPOUND AND USE THEREOF AS MEDICINE” (YOSHITOMI PHARMACEUTICAL INDUSTRIES, LTD., priority 1994, dated 1995)

Legend:
[1] = biological target: T1, 5-HT3 receptor (Rattus norvegicus, UniProt P35563); assay: 5-HT3 receptor binding test; settings: [3H]Granisetron 1.0 nM, crude synapse membrane from rat cerebral cortex, 25°C; for IC50: cells marked * are IC50, read-out: Affinity for receptor 5-HT3 (∗ shows IC50)
T1 construct: crude synapse membrane sample was prepared from rat cerebral cortex; from tissue; host or cells: rat cerebral cortex, crude synaptic membranes
T1 sequence (P35563 24-483): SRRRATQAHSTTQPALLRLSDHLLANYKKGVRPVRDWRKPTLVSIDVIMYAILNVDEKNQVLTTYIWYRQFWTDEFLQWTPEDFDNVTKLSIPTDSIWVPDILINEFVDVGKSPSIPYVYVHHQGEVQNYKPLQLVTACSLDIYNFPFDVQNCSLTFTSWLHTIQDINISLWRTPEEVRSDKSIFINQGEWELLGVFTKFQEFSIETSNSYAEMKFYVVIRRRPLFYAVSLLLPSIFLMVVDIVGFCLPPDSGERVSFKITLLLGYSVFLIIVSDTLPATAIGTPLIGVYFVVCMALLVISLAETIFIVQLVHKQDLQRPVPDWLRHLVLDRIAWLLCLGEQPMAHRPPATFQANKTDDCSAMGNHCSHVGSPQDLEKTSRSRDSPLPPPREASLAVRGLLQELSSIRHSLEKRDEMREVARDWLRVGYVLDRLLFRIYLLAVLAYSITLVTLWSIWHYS
Method: Experimental Example 2 : 5-HT3 receptor binding test
According to the method of Peroutka et al (European Journal of Pharmacology, vol. 148, pp. 297-299), a specific 5-HT3 receptor binding test was run using, as a tracer ligand, endo-1-methyl-N-(9-methyl-9-azabicyclo[3.3.1]non-3-yl)-1H-indazole-3-carboxamide substituted by tritium (hereinafter to be referred to as [3H]Granisetron). Specifically, crude synapse membrane sample was prepared from rat cerebral cortex, suspended in 50 mM HEPES buffer (pH 7.4) and used for testing. The test compound having several different concentrations and [3H]Granisetron (final concentration 1.0 nM) were added to this suspension and allowed to react at 25°C. Thirty minutes later, the reaction mixture was filtered by suction with cell harvester. The filter was washed with 50 mM Tris buffer (pH 7.4), and the radioactivity on the filter was counted using liquid scintillation counter or β-plate. The non-specific binding was determined in the presence of 1 µM Tropisetron. The concentration of the test compound necessary for 50% inhibition (IC50) and Ki value were determined from graph.

[2] = biological target: T2, 5-HT4 receptor (Cavia porcellus, UniProt O70528); assay: 5-HT4 receptor binding test; set-up: species or system guinea pig; settings: [3H]GR113808 0.1 nM, crude synapse membrane from guinea pig striatum, 37°C; read-out: Affinity for receptor (Ki value, nM) 5-HT4
T2 construct: crude synapse membrane sample was prepared from guinea pig striatum; from tissue; host or cells: guinea pig striatum, crude synaptic membranes
Method: Experimental Example 1 : 5-HT4 receptor binding test
According to the method of C.J. Grossman et al. (British Journal of Pharmacology, vol. 109, pp. 618-624), a specific 5-HT4 receptor binding test was run using, as a tracer ligand, 1-methyl-1H-indole-3-carboxylic acid · 1-(2-methylsulfonylaminoethyl)-piperidin-4-ylmethyl ester substituted by tritium (hereinafter to be referred to as [3H]GR113808). Specifically, crude synapse membrane sample was prepared from guinea pig striatum, suspended in 50 mM HEPES buffer (pH 7.4) and used for testing. The test compound having several different concentrations and [3H]GR113808 (final concentration 0.1 nM) were added to this suspension and allowed to react at 37°C. Thirty minutes later, the reaction mixture was filtered by suction with cell harvester. The filter was washed with 50 mM HEPES buffer, and the radioactivity on the filter was counted by liquid scintillation counter. The non-specific binding was determined in the presence of 1 µM GR113808. The concentration of the test compound necessary for 50% inhibition (IC50) and Ki value were determined from graph.

[3] = biological target: isolated guinea pig ascending colon (Cavia porcellus, UniProt O70528); assay: contraction of isolated guinea pig ascending colon; assay type: cell-based; settings: male Hartley guinea pig ascending colon, Tyrode solution 37°C, relative to methacholine (30 µM) contraction; read-out: Contraction of removed colon (EC50)
Method: Experimental Example 3 : contraction of isolated guinea pig ascending colon
About 3 cm long ascending colon segment was taken from male Hartley guinea pig and suspended in 10 ml of a Tyrode solution ventilated with a mixed gas of oxygen (95%) and CO2 (5%) at 37°C with the load of 2 g. The contraction was isotonically measured via isotonic transducer. After an equilibrium period of about 30 min, the test compound was administered non-cumulatively from lower concentrations, and dose-dependent contraction was measured. The test compound was administered at 15 minutes intervals. Then, contraction by the test compound in the presence of a 5-HT4 receptor antagonist, 4-amino-3-chloro-6-methoxybenzoic acid · 2-diethylaminoethyl ester (0.3 µM, hereinafter to be referred to as SDZ 205-557) was determined, and antagonistic effect on the reaction by SDZ 205-557 was confirmed.
The contraction by the test compound was evaluated based on the ratio of reaction relative to mean contraction induced by methacholine (30 µM) administered before and after each determination of dose-dependent contraction. The contraction was probit-converted using the maximum value of dose-response curve as 100, and expressed by EC50 as determined from linear regression and maximum reaction ratio.

isolated guinea pig ascending colon, sequence (O70528 whole entry): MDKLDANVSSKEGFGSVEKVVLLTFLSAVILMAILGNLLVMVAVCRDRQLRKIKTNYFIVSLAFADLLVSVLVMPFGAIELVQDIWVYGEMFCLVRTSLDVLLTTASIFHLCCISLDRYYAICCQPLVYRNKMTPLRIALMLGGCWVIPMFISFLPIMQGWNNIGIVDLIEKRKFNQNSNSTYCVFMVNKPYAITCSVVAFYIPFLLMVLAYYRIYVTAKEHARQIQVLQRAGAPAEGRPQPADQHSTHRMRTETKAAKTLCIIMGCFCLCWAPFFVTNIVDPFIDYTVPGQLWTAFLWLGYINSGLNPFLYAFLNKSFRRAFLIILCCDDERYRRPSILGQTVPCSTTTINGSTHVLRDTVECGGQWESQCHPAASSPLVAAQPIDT
T2 sequence (O70528 whole entry): as above

SMILES | IC50 [1] [nM] | Ki [2] [nM] | EC50 [3] [nM] | Ki ([1]; cells without asterisk, read-out: Affinity for receptor (Ki value, nM) 5-HT3) [nM]
CCCNC(=O)NCCCCCN1CCC(CNC(=O)c2cc(Cl)c(N)cc2OC)CC1 [Example 48, 4-amino-5-chloro-2-methoxy-N-(1-(5-(3-n-propylureido)pentyl)piperidin-4-ylmethyl)benzamide] | > 1000 | 2.1 | 4.8 | –
CCCNC(=O)NCCCCCN1CC[C@H](CNC(=O)c2cc(Cl)c(N)cc2OC)C1 [Example 46, 4-amino-5-chloro-2-methoxy-N-((3R)-1-(5-(3-n-propylureido)pentyl)pyrrolidin-3-ylmethyl)benzamide] | > 1000 | 1.5 | 6.9 | –
COc1cc(N)c(Cl)cc1C(=O)NC[C@H]1CCN(CCCCCNC(=O)Nc2ccccc2)C1 [Example 56, 4-amino-5-chloro-2-methoxy-N-((3R)-1-(5-(3-phenylureido)pentyl)pyrrolidin-3-ylmethyl)benzamide] | > 1000 | 0.65 | 1 | –

Second part, the compound after the results:

IC50 [1] [nM] | Ki [2] [nM] | EC50 [3] [nM] | Ki ([1]; cells without asterisk, read-out: Affinity for receptor (Ki value, nM) 5-HT3) [nM] | SMILES
– | 1.2 | 1.4 | 350 | COc1cc(N)c(Cl)cc1C(=O)NC[C@H]1CCN(CCCCCNC(=O)c2cn(C)c3ccccc23)C1 [Example 88, N-(5-((3R)-3-(4-amino-5-chloro-2-methoxybenzoylaminomethyl)pyrrolidin-1-yl)pentyl)-1-methyl-1H-indole-3-carboxamide]
> 1000 | 1.3 | 3.3 | – | COc1cc(N)c(Cl)cc1C(=O)NC[C@H]1CCN(CCCCNC(=O)c2cccc3ccccc23)C1 [Example 22, 4-amino-5-chloro-2-methoxy-N-((3R)-1-(4-(1-naphthoylamino)butyl)pyrrolidin-3-ylmethyl)benzamide]
